Reference: patent US20260217699A1, “BERBERINE TAUROURSODEOXYCHOLATE COMPOSITIONS AND METHODS THEREOF” (SHENZHEN HIGHTIDE BIOPHARMACEUTICAL LTD., priority 2023, published 2026)
Like-named read-outs stand apart in the source and are kept apart here.

Key:
[1] = Thermal transcrystallization experiment (variable temperature XRPD); type: physicochemical; conditions: heating to 150° C. and back to room temperature
Experimental: The form conversion by heating was carried out using an online variable temperature XRPD Malvern PANalytical Aeris (Malvern Panalytical, UK). The X-ray source was a Cu tube that was operated at 40 kV and 7.5 mA. Powder samples were prepared on zero-background Si holders using manual light pressure to keep the sample surface flat. Each sample was analyzed from 3 to 40° (2θ) with an effective step size of 0.02° 20. The measurement time of each sample was 13 min. The sample was placed on a BTS500 hot stage (Anton Paar, AT) to collected XRPD at RT, heated to the target temperature at 20° C./min and held for 10 min before XRPD analysis. The sample was then cooled to RT and characterized by XRPD.
(§1) The synthesized BTUDC was designated as crystalline form A (Form A), and its XRPD diffraction and other related characterization data are shown in FIGS. 11-15. […] (peak at 43° C.), and an endothermic peak at about 280° C.

[2] = type: physicochemical; conditions: for Purity/%: initial purity 99.45%
Experimental: The standard XRPD patterns were collected using a Panalytical EMPYREAN (PANalytical, UK). The X-ray source was a Cu tube that was operated at 45 kV and 40 mA. Powder samples were prepared on zero-background Si holders using manual light pressure to keep the sample surface flat. Each sample was analyzed from 3 to 45° (2θ) with an effective step size of 0.013° 20. The measurement time of each sample was 3.5 min.
The stability of Form A was studied under high temperature (60° C.), high humidity (25° C./92.5% RH), light (25° C./4500 Lux), and accelerated (40° C./75% RH) conditions, and the samples were taken at 7 and 15 days for XRPD characterization and HPLC tests, respectively, and the results are shown in Tables 3-4 and FIG. 17.

[3] = Rapid dynamic vapor sorption (Fast DVS) of Form A; type: physicochemical
Experimental: as §1

[4] = Accelerated 40° C./75% RH, 7 Days
[5] = Accelerated 40° C./75% RH, 15 Days
[6] = High Humidity 25° C./92.5% RH, 7 Days
[7] = High Humidity 25° C./92.5% RH, 15 Days
[8] = Light Exposure 25° C./4500 Lux, 7 Days
[9] = Light Exposure 25° C./4500 Lux, 15 Days

SMILES: COc1ccc2cc3[n+](cc2c1OC)CCc1cc2c(cc1-3)OCO2.C[C@H](CCC(=O)NCCS(=O)(=O)[O-])[C@H]1CC[C@H]2[C@@H]3[C@@H](O)C[C@@H]4C[C@H](O)CC[C@]4(C)[C@H]3CC[C@]12C [Form A, berberine tauroursodeoxycholate]
- crystalline form during heating [1]: remained unchanged
- XRPD Changes [2, 4]: No
- Purity/% [2, 4]: 99.44%
- XRPD Changes [2, 5]: No
- Purity/% [2, 5]: 99.41%
- Relative Peak Area (%) ([2]; HPLC main peak RRT 1.00, Accelerated 15 Days, Day 0: 99.45): 99.41%
- Relative Peak Area (%) ([2]; HPLC main peak RRT 1.00, High Humidity 15 Days, Day 0: 99.45): 99.44%
- Relative Peak Area (%) ([2]; HPLC main peak RRT 1.00, High Temp. 15 Days, Day 0: 99.45): 99.24%
- Relative Peak Area (%) ([2]; HPLC main peak RRT 1.00, Light Exposure 15 Days, Day 0: 99.45): 98.53%
- Relative Peak Area (%) ([2]; HPLC peak RRT 0.39, Light Exposure 15 Days, Day 0: /): 0.05%
- Relative Peak Area (%) ([2]; HPLC peak RRT 0.55, Light Exposure 15 Days, Day 0: /): 0.06%
- Relative Peak Area (%) ([2]; HPLC peak RRT 0.70, Accelerated 15 Days, Day 0: 0.05): 0.07%
- Relative Peak Area (%) ([2]; HPLC peak RRT 0.70, High Humidity 15 Days, Day 0: 0.05): 0.07%
- Relative Peak Area (%) ([2]; HPLC peak RRT 0.70, High Temp. 15 Days, Day 0: 0.05): 0.10%
- Relative Peak Area (%) ([2]; HPLC peak RRT 0.70, Light Exposure 15 Days, Day 0: 0.05): 0.77%
- Relative Peak Area (%) ([2]; HPLC peak RRT 0.73, Light Exposure 15 Days, Day 0: /): 0.03%
- Relative Peak Area (%) ([2]; HPLC peak RRT 0.76, Light Exposure 15 Days, Day 0: /): 0.07%
- Relative Peak Area (%) ([2]; HPLC peak RRT 0.79, Light Exposure 15 Days, Day 0: /): 0.05%
- Relative Peak Area (%) ([2]; HPLC peak RRT 0.82, Accelerated 15 Days, Day 0: 0.13): 0.13%
- Relative Peak Area (%) ([2]; HPLC peak RRT 0.82, High Humidity 15 Days, Day 0: 0.13): 0.13%
- Relative Peak Area (%) ([2]; HPLC peak RRT 0.82, High Temp. 15 Days, Day 0: 0.13): 0.13%
- Relative Peak Area (%) ([2]; HPLC peak RRT 0.82, Light Exposure 15 Days, Day 0: 0.13): 0.11%
- Relative Peak Area (%) ([2]; HPLC peak RRT 0.84, Accelerated 15 Days, Day 0: 0.06): 0.07%
- Relative Peak Area (%) ([2]; HPLC peak RRT 0.84, High Humidity 15 Days, Day 0: 0.06): 0.06%
- Relative Peak Area (%) ([2]; HPLC peak RRT 0.84, High Temp. 15 Days, Day 0: 0.06): 0.06%
- Relative Peak Area (%) ([2]; HPLC peak RRT 0.84, Light Exposure 15 Days, Day 0: 0.06): 0.06%
- Relative Peak Area (%) ([2]; HPLC peak RRT 0.90, Accelerated 15 Days, Day 0: 0.31): 0.32%
- Relative Peak Area (%) ([2]; HPLC peak RRT 0.90, High Humidity 15 Days, Day 0: 0.31): 0.30%
- Relative Peak Area (%) ([2]; HPLC peak RRT 0.90, High Temp. 15 Days, Day 0: 0.31): 0.48%
- Relative Peak Area (%) ([2]; HPLC peak RRT 0.90, Light Exposure 15 Days, Day 0: 0.31): 0.27%
- XRPD Changes [2, 6]: No
- Purity/% [2, 6]: 99.44%
- XRPD Changes [2, 7]: No
- Purity/% [2, 7]: 99.44%
- XRPD Changes ([2]; High Temp. 60° C., 7 Days): No
- Purity/% ([2]; High Temp. 60° C., 7 Days): 99.28%
- XRPD Changes ([2]; High Temp. 60° C., 15 Days): No
- Purity/% ([2]; High Temp. 60° C., 15 Days): 99.24%
- XRPD Changes [2, 8]: No
- Purity/% [2, 8]: 98.92%
- XRPD Changes [2, 9]: No
- Purity/% [2, 9]: 98.53%
- change in chemical purity (HPLC) ([2]; high temperature, high humidity and accelerated conditions for 15 days): no significant change
- change in chemical purity (HPLC) ([2]; light conditions for 15 days): significant decrease
- adsorption weight gain ([3]; at 80% RH): about 0.46%
- desorption weight gain ([3]; at 80% RH): about 0.49%
- adsorption weight gain ([3]; at 95% RH): about 0.74%
- change in crystalline shape after the DVS test (XRPD) ([3]; compared to the pre-test): did not undergo any change in crystalline shape
